Test results as given in patent US11439980B2, “Contaminant-activated photocatalysis” (UNIVERSITY OF FLORIDA RESEARCH FOUNDATION, INC., priority 2016, dated 2022).

Columns and labels:
[1] = Photocatalytic degradation of Mordant Orange on coated tiles under visible light; settings: MO on anatase coating, N=4
Protocol: (§1) Photocatalytic coating formulation was prepared by adding 10 mg of anatase (A7) to 10 mL of dilute NaOH (pH=9.5) in a 20 mL scintillation vial wrapped with aluminum foil. The suspension was sonicated (Misonix Sonicator 3000, Farmingdale, NY) at the highest power level providing 180-200 W for 30 minutes total (10 min on/2 min off×3). Similarly, rutile (R22) and silica (S15) coating formulations were prepared without exposing to visible light. In case of anatase+PHF, the anatase suspension was sonicated for 30 minutes followed by addition of 1 mL of a PHF solution (1000 or 100 mg/L). The nanocomposites suspension was mixed with a magnetic stirrer for 10 minutes in dark.
(§2) Ceramic tiles were utilized to evaluate the photocatalytic degradation of organic dye and inactivation of microbes. […]
(§3) The photocatalytic experiments were carried out under fluorescent lamps (General Electric model T8 Ultramax F28T8-SPX41) at visible light irradiance of 1.8-2.0 W/m^2. […] The visible light and UVA irradiances were measured with a PMA 2140 Global detector or a PMA 2110 UVA detector attached to a PMA2110 meter (Solar Light Co., Glenside, Pa.).
(§4) The temporal changes in dye concentration were determined by measuring the absorbance after predetermined times of exposure to visible light. The inactivation of S. aureus was evaluated by determining the viable counts after exposure to visible light. […]

[2] = Photocatalytic degradation of Procion Red on coated tiles under visible light; settings: PR on anatase coating, N=4
Protocol: as §1, §2, §3, §4

Substance	overall pseudo first order degradation rate [1]	overall pseudo first order degradation rate [2]
Mordant Orange	0.01 h⁻¹	
Procion Red		0.023 h⁻¹
